Test results published in patent US20210379056A1, “SUBSTITUTED PYRAZOLE FUSED RING DERIVATIVE, PREPARATION METHOD THEREFOR, AND APPLICATION THEREOF” (Applied Pharmaceutical Science, Inc., priority 2018, published 2021).

Test system: TT Cell
Assay: Cell inhibitory activity test (CCK8)
Format: cell-based
Conditions: Homo sapiens, TT, Table 3, 72 hours incubation
Protocol: Cell Inhibitory Activity Test
1. preparing 90 μl of cell suspension in a 96-well plate with 4000 cells/well. Pre-incubating the culture plate in an incubator for 24 hours (37° C., 5% CO2).
2. adding 10 μl of test compounds of different concentrations to each well of cells, and each compound has multiple wells.
3. incubating the culture plate in the incubator for 72 hours.
4. adding 10 μl of CCK8 solution to each well (be careful not to generate bubbles in the well, otherwise they would affect the reading of the OD value).
5. incubating the culture plate in the incubator for 1-2 hours.
6. measuring the absorbance at 450 nm with a microplate reader.
7. according to the compound concentration and absorbance value, GraphpadPrism software was used to calculate the IC50 of each compound.

Row | SMILES | IC50 [nM]
1 | CCN(CC)C(=O)N1CCN(c2ccc(-c3cc(-c4cnn(C)c4)cn4nc(N)c(C#N)c34)cn2)CC1 [APS016, 4-(5-(2-amino-3-cyano-6-(1-methyl-1H-pyrazol-4-yl)pyrazolo[1,5-a]pyridin-4-yl)pyridine-2-yl)-N,N-diethylpiperazine-1-carboxamide] | 31.1
2 | Cn1cc(-c2cc(-c3ccc(N4CCN(Cc5cncc(Cl)c5)CC4)nc3)c3c(C#N)c(N)nn3c2)cn1 [APS021] | 120
3 | COc1cccc(CN2CCN(c3ccc(-c4cc(-c5cnn(C)c5)cn5nc(N)c(C#N)c45)cn3)CC2)n1 [APS030, 2-amino-4-(6-(4-((6-methoxypyridin-2-yl)methyl)piperazin-1-yl)pyridin-3-yl)-6-(1-methyl-1H-pyrazol-4-yl)pyrazolo[1,5-a]pyridine-3-carbonitrile] | 57.6
4 | CN(C)c1ccc(CN2CCN(c3ccc(-c4cc(-c5cnn(C)c5)cn5nc(N)c(C#N)c45)cn3)CC2)cc1 [APS034, 2-amino-4-(6-(4-(4-(dimethylamino)benzyl)piperazin-1-yl)pyridin-3-yl)-6-(1-methyl-1H-pyrazole-4-yl)pyrazolo[1,5-a]pyridine-3-carbonitrile] | 32.8
5 | CN(C)c1ccc(CN2CCN(c3ccc(-c4cc(-c5cnn(C)c5)cn5nc(N)c(C#N)c45)cn3)CC2)cn1 [APS041, 2-amino-4-(6-(4-((6-(dimethylamino)pyridin-3-yl)methyl)piperazin-1-yl)pyridin-3-yl)-6-(1-methyl-1H-pyrazol-4-yl)pyrazolo[1,5-a]pyridine-3-carbonitrile] | 32.8
6 | Cn1cc(-c2cc(-c3ccc(N4CCN(C(=O)c5c(F)cccc5F)CC4)nc3)c3c(C#N)c(N)nn3c2)cn1 [APS062, 2-amino-4-(6-(4-(2,6-difluorobenzoyl)piperazin-1-yl)pyridin-3-yl)-6-(1-methyl-1H-pyrazole-4-yl)pyrazolo[1,5-a]pyridine-3-carbonitrile] | 34.1
7 | Cn1cc(-c2cc(-c3ccc(N4CCN(Cc5cnccn5)CC4)nc3)c3c(C#N)c(N)nn3c2)cn1 [APS064, 2-amino-6-(1-methyl-1H-pyrazol-4-yl)-4-(6-(4-(pyrazin-2-yl-methyl)piperazin-1-yl)pyridine-3-yl)pyrazolo[1,5-a]pyridine-3-carbonitrile] | 150
8 | C[C@@H]1CN(c2ccc(-c3cc(-c4cnn(C)c4)cn4nc(N)c(C#N)c34)cn2)CCN1Cc1ccccn1 [APS073, (R)-2-amino-6-(1-methyl-1H-pyrazol-4-yl)-4-(6-(3-methyl-4-(pyridin-2-yl-methyl)piperazine-1-yl)pyridin-3-yl)pyrazolo[1,5-a]pyridine-3-carbonitrile] | 144
9 | Cn1cc(-c2cc(-c3ccc(N4CCN(Cc5ccccc5)CC4)nc3)c3c(C#N)c(N)nn3c2)cn1 [APS074, 2-amino-4-(6-(4-benzylpiperazin-1-yl)pyridin-3-yl)-6-(1-methyl-1H-pyrazol-4-yl)pyrazolo[1,5-a]pyridine-3-carbonitrile] | 25.2
10 | Cn1cc(-c2cc(-c3ccc(N4CCN(Cc5cccnc5)CC4)nc3)c3c(C#N)c(N)nn3c2)cn1 [APS075, 2-amino-6-(1-methyl-1H-pyrazol-4-yl)-4-(6-(4-(pyridin-3-yl-methyl)piperazin-1-yl)pyridine-3-yl)pyrazolo[1,5-a]pyridine-3-carbonitrile] | 122
11 | C[C@@H]1CN(Cc2ccccn2)CCN1c1ccc(-c2cc(-c3cnn(C)c3)cn3nc(N)c(C#N)c23)cn1 [APS076, (R)-2-amino-6-(1-methyl-1H-pyrazol-4-yl)-4-(6-(2-methyl-4-(pyridin-2-yl-methyl)piperazine-1-yl)pyridin-3-yl)pyrazolo[1,5-a]pyridine-3-carbonitrile] | 96.4
12 | Cn1cc(-c2cc(-c3ccc(N4CCN(Cc5ccc(F)cc5)CC4)nc3)c3c(C#N)c(N)nn3c2)cn1 [APS077, 2-amino-4-(6-(4-(4-fluorobenzyl)piperazin-1-yl)pyridin-3-yl)-6-(1-methyl-1H-pyrazol-4-yl) pyrazolo[1,5-a]pyridine-3-carbonitrile] | 58.3
